The record followed here is US9540343B2 (Gilead Sciences, Inc., priority 2011, dated 2017).

In one data set the test system is HIV-IIIb. As to the kind of experiment: Test A: Antiviral assay in MT4 cells. Type of data set: cell-based, HIV-1. Conditions: Human immunodeficiency virus 1, IIIB, MT4, 120 h, read-out: % inhibition at 2 μM, percent inhibition of virus-induced cell killing, from dose response curve at 2 uM drug; MT-4 cells infected with HIV-IIIb, 5 days, CellTiter-Glo. On the technique in general: Cellular ATP, detected with luciferase, serves as a proxy for viable cell number.

The nature of a further data set: in vitro. Conditions: human, uninfected MT-4 cells, CC50 (nM), same protocol as Test A, CellTiter-Glo. The procedure, abridged:
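Cytoprotection read-out: CellTiter-Glo chemiluminescence after 5 days at 37 °C of HIV-IIIb-infected MT-4 cells (m.o.i. 0.003) with compound in 10-point 3-fold dilutions, quadruplicate, 10% FBS. Cytotoxicity (CC50) measured identically without virus.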

A value given as a limit tells only on which side of the number the result lay.

For orientation: inhibition means the relative decrease from the control value, in per cent. One may read the CC50 as the concentration giving 50% cytotoxicity. On to `O=C(Cn1nc(C(F)(F)F)c2c1CCCC2)N[C@H](Cc1cc(F)cc(F)c1)c1ncncc1-c1ccc(Cl)cc1` [Example 383, (R)—N-(1-(5-(4-chlorophenyl)pyrimidin-4-yl)-2-(3,5-difluorophenyl)ethyl)-2-(3-(trifluoromethyl)-4,5,6,7-tetrahydro-1H-indazol-1-yl)acetamide], for which, in the data set on HIV-IIIb, the inhibition at 2 µM was found to be 32%. The same compound registered a CC50 at 5 days in the data set “in vitro” of 15500 nM.

As to `NC(=O)c1cc(-c2cccnc2[C@H](Cc2cc(F)cc(F)c2)NC(=O)Cn2nc(C(F)F)c3c2C(O)CCC3)ccc1F` (stereo partly drawn) [Example 384, 5-(2-((1S)-1-(2-(3-(difluoromethyl)-7-hydroxy-4,5,6,7-tetrahydro-1H-indazol-1-yl)acetamido)-2-(3,5-difluorophenyl)ethyl)pyridin-3-yl)-2-fluorobenzamide], the inhibition at 2 µM in the data set on HIV-IIIb stood at 97%. The CC50 at 5 days in the data set “in vitro” is over 53200 nM.

In the case of `Cc1cc(C(F)(F)F)nn1CC(=O)N[C@@H](Cc1cc(F)cc(F)c1)c1ncccc1-c1ccc(F)c(C(N)=O)c1` [Example 385, (S)-5-(2-(2-(3,5-difluorophenyl)-1-(2-(5-methyl-3-(trifluoromethyl)-1H-pyrazol-1-yl)acetamido)ethyl)pyridin-3-yl)-2-fluorobenzamide], the inhibition at 2 µM with HIV-IIIb amounted to 40%. The compound further returned a 50% cytotoxic concentration (CC50) at 5 days in the data set “in vitro” of over 53200 nM.

For `NC(=O)c1cc(-c2cccnc2[C@H](Cc2cc(F)cc(F)c2)NC(=O)Cn2nc(C(F)(F)F)c3c2CC(F)(F)CC3)ccc1F` [Example 387, (S)-5-(2-(1-(2-(6,6-difluoro-3-(trifluoromethyl)-4,5,6,7-tetrahydro-1H-indazol-1-yl)acetamido)-2-(3,5-difluorophenyl)ethyl)pyridin-3-yl)-2-fluorobenzamide], the inhibition at 2 µM in the data set with HIV-IIIb was found to be 61%. In addition, the CC50 at 5 days in the data set “in vitro” stood at 21200 nM.

For `CN1CCc2c(C(F)(F)F)nn(CC(=O)N[C@@H](Cc3cc(F)cc(F)c3)c3ncccc3-c3ccc(F)c(C(N)=O)c3)c2C1` [Example 388, (S)-5-(2-(2-(3,5-difluorophenyl)-1-(2-(6-methyl-3-(trifluoromethyl)-4,5,6,7-tetrahydro-1H-pyrazolo[3,4-c]pyridin-1-yl)acetamido)ethyl)pyridin-3-yl)-2-fluorobenzamide], the inhibition at 2 µM in the data set with HIV-IIIb turned out to be 54%. This compound had a CC50 at 5 days in “in vitro” of over 53200 nM.

For `CC(=O)c1cn(CC(=O)N[C@@H](Cc2cc(F)cc(F)c2)c2ncccc2-c2ccc(F)c(C(N)=O)c2)nc1C(F)(F)F` [Example 389B, (S)-5-(2-(1-(2-(4-acetyl-3-(trifluoromethyl)-1H-pyrazol-1-yl)acetamido)-2-(3,5-difluorophenyl)ethyl)pyridin-3-yl)-2-fluorobenzamide], the inhibition at 2 µM in the data set with HIV-IIIb amounted to 2%. In the data set “in vitro”, the CC50 at 5 days is over 53200 nM.

For the compound `NC(=O)c1cc(-c2cccnc2C(Cc2cc(F)cc(F)c2)NC(=O)Cn2nc(C(F)F)c3c2C(F)(F)CCC3F)ccc1F` (stereo not shown) [Example 390, 5-(2-(1-(2-(3-(difluoromethyl)-4,7,7-trifluoro-4,5,6,7-tetrahydro-1H-indazol-1-yl)acetamido)-2-(3,5-difluorophenyl)ethyl)pyridin-3-yl)-2-fluorobenzamide], in the data set with HIV-IIIb, the inhibition at 2 µM was found to be 99%. The compound also had a CC50 at 5 days in “in vitro” of 21600 nM.

Regarding `NC(=O)c1cc(-c2cccnc2[C@H](Cc2cc(F)cc(F)c2)NC(=O)Cn2nc(C(F)(F)F)c3c2C(O)CC3)ccc1F` (stereo partly drawn) [Example 391, 5-(2-((1S)-2-(3,5-difluorophenyl)-1-(2-(6-hydroxy-3-(trifluoromethyl)-5,6-dihydrocyclopenta[c]pyrazol-1(4H)-yl)acetamido)ethyl)pyridin-3-yl)-2-fluorobenzamide], the inhibition at 2 µM in the data set with HIV-IIIb amounted to 60%. The compound also gave a CC50 at 5 days in “in vitro” of 44800 nM.

With `NC(=O)c1cc(-c2cccnc2C(Cc2cc(F)cc(F)c2)NC(=O)Cn2nc(C(F)F)c3c2C2CC2CC3)ccc1F` (stereo not shown) [Example 392, 5-(2-(1-(2-(3-(difluoromethyl)-5,5a,6,6a-tetrahydrocyclopropa[g]indazol-1(4H)-yl)acetamido)-2-(3,5-difluorophenyl)ethyl)pyridin-3-yl)-2-fluorobenzamide], the inhibition at 2 µM in the data set on HIV-IIIb was determined as 105%. In “in vitro”, this compound displayed a CC50 at 5 days of 19100 nM.

`CCCCNS(=O)(=O)c1ccc(-c2cccnc2[C@H](Cc2cc(F)cc(F)c2)NC(=O)Cn2nc(C(F)F)c3c2C(F)(F)C2CC32)cc1` (stereo partly drawn) [Example 393, (S)—N-(1-(3-(4-(N-butylsulfamoyl)phenyl)-pyridin-2-yl)-2-(3,5-difluorophenyl)ethyl)-2-(3-(difluoromethyl)-5,6-dihydro-4,5-(methano)-6,6-difluoro-cyclopenta[c]pyrazol-1(4H)-yl)acetamide]: in the data set on HIV-IIIb, the inhibition at 2 µM was 54%. Also, the CC50 at 5 days in “in vitro” is 26100 nM.

Turning to `CC(=O)Nc1ccc(-c2cccnc2[C@H](Cc2cc(F)cc(F)c2)NC(=O)Cc2c[nH]c3ccc(F)cc23)cc1` [Example 394], the inhibition at 2 µM in the data set on HIV-IIIb came out at 14%. This compound yielded a CC50 at 5 days in the data set “in vitro” of 30800 nM.

For the compound `O=C(Cc1c[nH]c2ccc(F)cc12)N[C@@H](Cc1cc(F)cc(F)c1)c1ncccc1-c1ccccc1Cl` [Example 395, (S)—N-(1-(3-(2-chlorophenyl)pyridin-2-yl)-2-(3,5-difluorophenyl)ethyl)-2-(5-fluoro-1H-indol-3-yl)acetamide], the inhibition at 2 µM in the data set on HIV-IIIb is 41%. In “in vitro”, this compound returned a CC50 at 5 days of 11600 nM.

For the compound `O=C(Cc1c[nH]c2ccc(F)cc12)N[C@@H](Cc1cc(F)cc(F)c1)c1ncccc1-c1ccc(Cl)c(Cl)c1` [Example 396, (S)—N-(1-(3-(3,4-dichlorophenyl)pyridin-2-yl)-2-(3,5-difluorophenyl)ethyl)-2-(5-fluoro-1H-indol-3-yl)acetamide], the inhibition at 2 µM with HIV-IIIb stood at 39%. The CC50 at 5 days in the data set “in vitro” is 10000 nM.

Regarding `NC(=O)c1cc(-c2cccnc2[C@H](Cc2cc(F)cc(F)c2)NC(=O)Cn2nc(C(F)F)c3c2C2CC(C2)C3=O)ccc1F` [Example 397, (S)-5-(2-(2-(3,5-difluorophenyl)-1-(2-(4,5,6,7-tetrahydro-3-difluoromethyl-4-oxo-5,7-(methano)indazol-1-yl)acetamido)ethyl)pyridin-3-yl)-2-fluorobenzamide], in the data set with HIV-IIIb, the inhibition at 2 µM was 26%. In addition, the CC50 at 5 days in “in vitro” is over 53200 nM.

Consider `O=C(Cc1c[nH]c2ccc(F)cc12)N[C@@H](Cc1cc(F)cc(F)c1)c1ncccc1-c1ccccc1-c1ccccc1` [Example 398, (S)—N-(1-(3-(biphenyl-2-yl)pyridin-2-yl)-2-(3,5-difluorophenyl)ethyl)-2-(5-fluoro-1H-indol-3-yl)acetamide], for which, in the data set on HIV-IIIb, the inhibition at 2 µM was 2%. Also, the CC50 at 5 days in “in vitro” came out at 9830 nM.

For the compound `O=C1Cc2cc(-c3cccnc3[C@H](Cc3cc(F)cc(F)c3)NC(=O)Cn3nc(C(F)F)c4c3C(F)(F)C3CC43)ccc2N1` (stereo partly drawn) [Example 400, (S)—N-(1-(3-(oxindole-5-yl)-pyridin-2-yl)-2-(3,5-difluorophenyl)ethyl)-2-(3-(difluoromethyl)-5,6-dihydro-4,5-(methano)-6,6-difluoro-cyclopenta[c]pyrazol-1(4H)-yl)acetamide], in the data set with HIV-IIIb, the inhibition at 2 µM amounted to 45%. Moreover, in “in vitro”, the midpoint of cytotoxicity, the CC50 at 5 days, lay at 23300 nM.

Consider `CN(C)CCNC(=O)c1cccc(-c2cccnc2[C@H](Cc2cc(F)cc(F)c2)NC(=O)Cn2nc(C(F)(F)F)c3c2CCCC3)c1` [Example 401C, (S)-3-(2-(2-(3,5-difluorophenyl)-1-(2-(3-(trifluoromethyl)-4,5,6,7-tetrahydro-1H-indazol-1-yl)acetamido)ethyl)pyridin-3-yl)-N-(2-(dimethylamino)ethyl)benzamide], for which, in the data set on HIV-IIIb, the inhibition at 2 µM is 87%. In addition, the CC50 at 5 days in “in vitro” turned out to be 9720 nM.

Take `O=C(Cc1c[nH]c2ccc(O)cc12)N[C@@H](Cc1cc(F)cc(F)c1)c1ncccc1-c1ccccc1` [Example 402, (S)—N-(2-(3,5-difluorophenyl)-1-(3-phenylpyridin-2-yl)ethyl)-2-(5-hydroxy-1H-indol-3-yl)acetamide]: in the data set with HIV-IIIb, the inhibition at 2 µM turned out to be 92%. In the data set “in vitro”, this compound yielded a CC50 at 5 days of 24800 nM.

For the compound `NC(=O)c1cc(-c2cccnc2[C@H](Cc2cc(F)cc(F)c2)NC(=O)Cn2nc(C=O)c3c2C2CCC3C2)ccc1F` (stereo partly drawn) [Example 403, (S)-5-(2-(2-(3,5-difluorophenyl)-1-(2-(4,5,6,7-tetrahydro-3-formyl-4,7-(methano)indazol-1-yl)acetamido)ethyl)pyridin-3-yl)-2-fluorobenzamide], the inhibition at 2 µM in the data set on HIV-IIIb was 112%. In the data set “in vitro”, it took 10500 nM to reach half-maximal cytotoxicity (CC50 at 5 days).

On to `Cc1cc(F)ccc1-c1cccnc1[C@H](Cc1cc(F)cc(F)c1)NC(=O)Cc1c[nH]c2ccc(F)cc12` [Example 404, (S)—N-(2-(3,5-difluorophenyl)-1-(3-(4-fluoro-2-methylphenyl)pyridin-2-yl)ethyl)-2-(5-fluoro-1H-indol-3-yl)acetamide], for which the inhibition at 2 µM in the data set with HIV-IIIb is 0%. Further, it took 44600 nM to reach half-maximal cytotoxicity in the data set “in vitro” (CC50 at 5 days).

With `CNC(=O)c1ccc(-c2cccnc2[C@H](Cc2cc(F)cc(F)c2)NC(=O)Cc2c[nH]c3ccc(F)cc23)cc1Cl` [Example 405, (S)-2-chloro-4-(2-(2-(3,5-difluorophenyl)-1-(2-(5-fluoro-1H-indol-3-yl)acetamido)ethyl)pyridin-3-yl)-N-methylbenzamide], the inhibition at 2 µM in the data set on HIV-IIIb was 11%. The compound further displayed a CC50 at 5 days in “in vitro” of 21100 nM.

In the case of `O=C(Cc1c[nH]c2ccc(F)cc12)N[C@@H](Cc1cc(F)cc(F)c1)c1ncccc1-c1ccc(F)c(F)c1` [Example 406, (S)—N-(2-(3,5-difluorophenyl)-1-(3-(3,4-difluorophenyl)pyridin-2-yl)ethyl)-2-(5-fluoro-1H-indol-3-yl)acetamide], the inhibition at 2 µM in the data set on HIV-IIIb is 27%. Moreover, in the data set “in vitro”, the CC50 at 5 days is 11400 nM.

In the case of `O=C(Cn1nc(C(F)(F)F)c2c1CCCC2)N[C@@H](Cc1cc(F)cc(F)c1)c1ncccc1-c1cnc2[nH]ccc2c1` [Example 407, (S)—N-(1-(3-(1H-pyrrolo[2,3-b]pyridin-5-yl)pyridin-2-yl)-2-(3,5-difluorophenyl)ethyl)-2-(3-(trifluoromethyl)-4,5,6,7-tetrahydro-1H-indazol-1-yl)acetamide], the inhibition at 2 µM in the data set with HIV-IIIb turned out to be 102%. In addition, the CC50 at 5 days in “in vitro” stood at 12000 nM.
